How the values were obtained:
EBC-1 [1] = experiment: Cytotoxicity against human EBC1 cells assessed as decrease in cell viability after 72 hrs by Cell Titer-Glo assay; format: functional
MKN-45 = experiment: Cytotoxicity against human MKN45 cells assessed as decrease in cell viability after 72 hrs by Cell Titer-Glo assay; format: functional
PC-3 [2] = experiment: Cytotoxicity against human PC3 cells assessed as decrease in cell viability after 72 hrs by Cell Titer-Glo assay; format: functional
HFL1 = experiment: Cytotoxicity against human HFL1 cells assessed as decrease in cell viability at 50 uM after 72 hrs by Cell Titer-Glo assay; format: cell-based; settings: hfl1, 72 h
[3] = molecular target: T1, Hepatocyte growth factor receptor (Homo sapiens, UniProt P08581); experiment: Inhibition of human GST-tagged c-MET preincubated for 20 mins followed by [33P]-ATP addition measured after 2 hrs by Hot-SpotSM kinase assay
T1 sequence (P08581 whole entry): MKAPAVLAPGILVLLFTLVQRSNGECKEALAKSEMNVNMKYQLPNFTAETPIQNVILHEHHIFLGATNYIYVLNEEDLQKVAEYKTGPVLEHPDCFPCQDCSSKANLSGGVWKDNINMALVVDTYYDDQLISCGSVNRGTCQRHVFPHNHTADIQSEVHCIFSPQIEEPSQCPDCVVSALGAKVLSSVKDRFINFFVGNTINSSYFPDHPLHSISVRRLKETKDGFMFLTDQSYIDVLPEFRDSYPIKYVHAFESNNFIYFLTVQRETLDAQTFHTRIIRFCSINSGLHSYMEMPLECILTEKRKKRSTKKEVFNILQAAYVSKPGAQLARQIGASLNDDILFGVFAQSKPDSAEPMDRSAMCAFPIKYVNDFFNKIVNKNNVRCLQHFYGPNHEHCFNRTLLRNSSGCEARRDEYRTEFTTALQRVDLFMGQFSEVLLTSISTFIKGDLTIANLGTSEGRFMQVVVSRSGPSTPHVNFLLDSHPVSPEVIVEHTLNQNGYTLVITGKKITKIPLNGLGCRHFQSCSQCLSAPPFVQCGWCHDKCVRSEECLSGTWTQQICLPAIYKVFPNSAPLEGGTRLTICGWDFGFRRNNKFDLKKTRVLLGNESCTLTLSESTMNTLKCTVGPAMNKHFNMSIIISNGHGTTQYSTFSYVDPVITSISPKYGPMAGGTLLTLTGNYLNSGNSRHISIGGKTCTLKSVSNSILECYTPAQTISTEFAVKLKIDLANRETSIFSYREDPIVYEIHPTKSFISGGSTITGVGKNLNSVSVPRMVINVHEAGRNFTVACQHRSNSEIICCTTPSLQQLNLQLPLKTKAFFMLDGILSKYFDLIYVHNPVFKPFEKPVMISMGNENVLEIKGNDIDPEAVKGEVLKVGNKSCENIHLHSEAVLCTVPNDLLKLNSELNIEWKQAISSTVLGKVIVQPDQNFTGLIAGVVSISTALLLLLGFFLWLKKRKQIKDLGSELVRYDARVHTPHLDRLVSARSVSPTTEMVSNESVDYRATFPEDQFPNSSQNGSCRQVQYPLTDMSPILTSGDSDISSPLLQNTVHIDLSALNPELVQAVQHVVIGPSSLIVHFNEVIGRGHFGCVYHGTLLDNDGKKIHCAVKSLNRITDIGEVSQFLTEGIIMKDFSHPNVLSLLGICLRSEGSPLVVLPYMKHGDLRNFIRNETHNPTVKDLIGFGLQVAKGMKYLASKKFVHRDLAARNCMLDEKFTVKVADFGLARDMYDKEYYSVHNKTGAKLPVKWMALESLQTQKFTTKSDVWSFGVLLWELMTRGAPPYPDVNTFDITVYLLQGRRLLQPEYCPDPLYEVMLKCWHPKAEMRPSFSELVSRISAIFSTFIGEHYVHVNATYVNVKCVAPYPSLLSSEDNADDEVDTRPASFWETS

EBC-1 [4] = experiment: Cytotoxicity against human EBC1 cells assessed as decrease in cell viability at 25 uM after 72 hrs by Cell Titer-Glo assay relative to control; format: functional
[5] = molecular target: T1, Hepatocyte growth factor receptor; experiment: Inhibition of human GST-tagged c-MET at 3 uM preincubated for 20 mins followed by [33P]-ATP addition measured after 2 hrs by Hot-SpotSM kinase assay
[6] = molecular target: Epidermal growth factor receptor (Homo sapiens) (UniProt P00533); experiment: Inhibition of human GST-tagged EGFR at 3 uM preincubated for 20 mins followed by [33P]-ATP addition measured after 2 hrs by Hot-SpotSM kinase assay
Chain of Epidermal growth factor receptor (Homo sapiens) (P00533 whole entry): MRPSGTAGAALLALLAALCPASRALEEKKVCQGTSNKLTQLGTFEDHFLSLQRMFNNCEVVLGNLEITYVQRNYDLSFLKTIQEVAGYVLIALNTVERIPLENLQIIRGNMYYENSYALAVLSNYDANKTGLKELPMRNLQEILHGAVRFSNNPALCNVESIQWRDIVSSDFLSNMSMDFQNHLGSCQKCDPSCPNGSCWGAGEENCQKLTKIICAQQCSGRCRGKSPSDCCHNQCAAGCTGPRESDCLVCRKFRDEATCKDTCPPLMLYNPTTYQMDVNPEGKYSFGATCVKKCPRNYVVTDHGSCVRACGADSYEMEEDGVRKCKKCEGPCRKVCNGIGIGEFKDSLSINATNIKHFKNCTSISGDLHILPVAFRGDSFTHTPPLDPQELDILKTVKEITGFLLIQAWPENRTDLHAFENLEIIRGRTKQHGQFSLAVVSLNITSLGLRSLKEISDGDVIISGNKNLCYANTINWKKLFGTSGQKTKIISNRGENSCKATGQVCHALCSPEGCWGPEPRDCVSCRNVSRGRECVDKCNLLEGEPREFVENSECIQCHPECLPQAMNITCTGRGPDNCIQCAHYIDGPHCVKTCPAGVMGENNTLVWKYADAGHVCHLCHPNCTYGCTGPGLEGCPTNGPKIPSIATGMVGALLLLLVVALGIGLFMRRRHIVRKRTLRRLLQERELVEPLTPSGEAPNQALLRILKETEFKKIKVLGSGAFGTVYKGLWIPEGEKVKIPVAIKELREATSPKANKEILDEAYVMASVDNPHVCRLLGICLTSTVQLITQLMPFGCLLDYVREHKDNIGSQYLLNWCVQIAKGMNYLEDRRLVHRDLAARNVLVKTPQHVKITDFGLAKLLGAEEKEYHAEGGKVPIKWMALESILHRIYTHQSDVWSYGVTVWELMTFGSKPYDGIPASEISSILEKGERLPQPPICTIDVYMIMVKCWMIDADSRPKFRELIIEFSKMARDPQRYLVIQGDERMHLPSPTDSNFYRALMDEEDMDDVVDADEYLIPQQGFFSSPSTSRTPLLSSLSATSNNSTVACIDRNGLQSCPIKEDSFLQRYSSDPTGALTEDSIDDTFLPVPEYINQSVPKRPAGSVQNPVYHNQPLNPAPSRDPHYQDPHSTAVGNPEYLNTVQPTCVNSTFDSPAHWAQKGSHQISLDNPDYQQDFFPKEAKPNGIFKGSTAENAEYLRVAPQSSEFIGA

[7] = molecular target: Receptor-type tyrosine-protein kinase FLT3 (Homo sapiens) (UniProt P36888); experiment: Inhibition of human GST-tagged FLT3 at 3 uM preincubated for 20 mins followed by [33P]-ATP addition measured after 2 hrs by Hot-SpotSM kinase assay
[8] = molecular target: Vascular endothelial growth factor receptor 2 (Homo sapiens) (UniProt P35968); experiment: Inhibition of human GST-tagged VEGFR2 at 3 uM preincubated for 20 mins followed by [33P]-ATP addition measured after 2 hrs by Hot-SpotSM kinase assay
[9] = molecular target: Platelet-derived growth factor receptor alpha (Homo sapiens) (UniProt P16234); experiment: Inhibition of human GST-tagged PDGFRalpha at 3 uM preincubated for 20 mins followed by [33P]-ATP addition measured after 2 hrs by Hot-SpotSM kinase assay
[10] = molecular target: Proto-oncogene tyrosine-protein kinase receptor Ret (Homo sapiens) (UniProt P07949); experiment: Inhibition of human GST-tagged RET at 3 uM preincubated for 20 mins followed by [33P]-ATP addition measured after 2 hrs by Hot-SpotSM kinase assay
Chain of Proto-oncogene tyrosine-protein kinase receptor Ret (Homo sapiens) (P07949 whole entry): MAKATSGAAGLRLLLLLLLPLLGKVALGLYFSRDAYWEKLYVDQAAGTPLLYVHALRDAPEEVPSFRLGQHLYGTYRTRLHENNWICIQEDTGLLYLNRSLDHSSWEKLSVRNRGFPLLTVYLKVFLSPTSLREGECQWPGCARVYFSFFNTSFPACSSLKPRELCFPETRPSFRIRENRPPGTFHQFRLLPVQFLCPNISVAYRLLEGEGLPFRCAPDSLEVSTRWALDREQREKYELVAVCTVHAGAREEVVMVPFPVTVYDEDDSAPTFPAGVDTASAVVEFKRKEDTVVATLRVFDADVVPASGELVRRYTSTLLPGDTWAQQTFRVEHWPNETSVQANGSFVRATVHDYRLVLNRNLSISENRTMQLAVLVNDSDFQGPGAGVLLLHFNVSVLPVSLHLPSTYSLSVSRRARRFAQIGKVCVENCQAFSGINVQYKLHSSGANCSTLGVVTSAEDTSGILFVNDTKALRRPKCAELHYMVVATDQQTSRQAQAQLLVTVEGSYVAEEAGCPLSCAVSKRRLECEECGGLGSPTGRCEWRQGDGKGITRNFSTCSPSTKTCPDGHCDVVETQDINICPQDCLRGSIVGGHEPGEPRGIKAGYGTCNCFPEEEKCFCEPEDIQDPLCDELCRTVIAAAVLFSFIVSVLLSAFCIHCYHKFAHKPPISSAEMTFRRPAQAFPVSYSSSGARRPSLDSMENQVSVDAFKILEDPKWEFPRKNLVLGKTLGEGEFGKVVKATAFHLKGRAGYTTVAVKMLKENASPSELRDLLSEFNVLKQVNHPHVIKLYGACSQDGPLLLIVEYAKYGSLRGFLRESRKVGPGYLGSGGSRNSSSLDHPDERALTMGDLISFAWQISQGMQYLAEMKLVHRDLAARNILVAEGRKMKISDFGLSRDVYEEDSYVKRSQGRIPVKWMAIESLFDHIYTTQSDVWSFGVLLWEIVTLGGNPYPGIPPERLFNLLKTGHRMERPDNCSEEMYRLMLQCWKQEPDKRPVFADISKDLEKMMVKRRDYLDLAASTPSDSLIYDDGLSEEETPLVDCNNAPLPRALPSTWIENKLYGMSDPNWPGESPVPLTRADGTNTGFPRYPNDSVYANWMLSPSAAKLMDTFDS

[11] = molecular target: Macrophage-stimulating protein receptor (Homo sapiens) (UniProt Q04912); experiment: Inhibition of human GST-tagged RON at 3 uM preincubated for 20 mins followed by [33P]-ATP addition measured after 2 hrs by Hot-SpotSM kinase assay
[12] = molecular target: ALK tyrosine kinase receptor (Homo sapiens) (UniProt Q9UM73); experiment: Inhibition of human GST-tagged ALK at 3 uM preincubated for 20 mins followed by [33P]-ATP addition measured after 2 hrs by Hot-SpotSM kinase assay
[13] = tested on: Hepatocyte growth factor receptor (Homo sapiens), P08581 [Y1230C]; experiment: Inhibition of human GST-tagged c-MET Y1230C mutant at 3 uM preincubated for 20 mins followed by [33P]-ATP addition measured after 2 hrs by Hot-SpotSM kinase assay
Chain of Hepatocyte growth factor receptor (Homo sapiens), P08581 [Y1230C] (P08581 whole entry Y1230C): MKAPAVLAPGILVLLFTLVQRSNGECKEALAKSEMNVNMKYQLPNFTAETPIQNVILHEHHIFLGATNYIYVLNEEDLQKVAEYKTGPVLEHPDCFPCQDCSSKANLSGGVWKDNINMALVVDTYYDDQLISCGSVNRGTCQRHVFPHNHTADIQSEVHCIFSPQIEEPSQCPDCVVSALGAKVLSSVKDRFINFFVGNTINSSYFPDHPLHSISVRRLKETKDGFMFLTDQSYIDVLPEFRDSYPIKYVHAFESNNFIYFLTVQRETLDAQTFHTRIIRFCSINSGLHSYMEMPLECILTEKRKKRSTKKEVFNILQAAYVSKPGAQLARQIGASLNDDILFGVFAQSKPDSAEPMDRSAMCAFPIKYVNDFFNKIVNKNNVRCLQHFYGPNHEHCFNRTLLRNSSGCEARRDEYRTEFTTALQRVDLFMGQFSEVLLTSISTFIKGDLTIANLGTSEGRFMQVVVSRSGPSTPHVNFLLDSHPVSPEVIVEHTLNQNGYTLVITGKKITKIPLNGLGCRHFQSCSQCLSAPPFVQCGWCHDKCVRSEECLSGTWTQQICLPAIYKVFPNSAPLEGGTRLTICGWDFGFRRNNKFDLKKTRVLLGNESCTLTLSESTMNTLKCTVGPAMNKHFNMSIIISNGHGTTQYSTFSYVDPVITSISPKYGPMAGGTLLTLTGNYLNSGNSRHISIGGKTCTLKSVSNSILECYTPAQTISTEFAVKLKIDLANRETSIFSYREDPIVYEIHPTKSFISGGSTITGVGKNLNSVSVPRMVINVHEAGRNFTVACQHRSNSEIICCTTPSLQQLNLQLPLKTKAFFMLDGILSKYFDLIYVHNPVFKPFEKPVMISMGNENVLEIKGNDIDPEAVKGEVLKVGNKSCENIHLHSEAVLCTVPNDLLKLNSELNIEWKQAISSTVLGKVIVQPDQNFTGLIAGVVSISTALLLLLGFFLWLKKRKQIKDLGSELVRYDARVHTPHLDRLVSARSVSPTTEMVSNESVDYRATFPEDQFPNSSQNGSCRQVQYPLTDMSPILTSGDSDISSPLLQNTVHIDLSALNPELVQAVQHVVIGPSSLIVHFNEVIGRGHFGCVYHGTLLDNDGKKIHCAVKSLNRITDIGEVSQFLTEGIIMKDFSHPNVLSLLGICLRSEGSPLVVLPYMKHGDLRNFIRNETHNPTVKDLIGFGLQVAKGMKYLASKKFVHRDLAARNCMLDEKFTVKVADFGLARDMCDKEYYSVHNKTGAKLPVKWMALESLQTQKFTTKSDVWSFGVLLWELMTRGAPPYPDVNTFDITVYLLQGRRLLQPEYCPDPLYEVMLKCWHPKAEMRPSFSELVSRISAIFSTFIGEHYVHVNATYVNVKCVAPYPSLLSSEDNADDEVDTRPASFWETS

[14] = tested on: Hepatocyte growth factor receptor (Homo sapiens), P08581 [Y1230H]; experiment: Inhibition of human GST-tagged c-MET Y1230H mutant at 3 uM preincubated for 20 mins followed by [33P]-ATP addition measured after 2 hrs by Hot-SpotSM kinase assay
[15] = molecular target: T2, Receptor-type tyrosine-protein kinase FLT3 (Homo sapiens, UniProt P36888); experiment: Inhibition of human GST-tagged FLT3 preincubated for 20 mins followed by [33P]-ATP addition measured after 2 hrs by Hot-SpotSM kinase assay
T2 sequence (P36888 whole entry): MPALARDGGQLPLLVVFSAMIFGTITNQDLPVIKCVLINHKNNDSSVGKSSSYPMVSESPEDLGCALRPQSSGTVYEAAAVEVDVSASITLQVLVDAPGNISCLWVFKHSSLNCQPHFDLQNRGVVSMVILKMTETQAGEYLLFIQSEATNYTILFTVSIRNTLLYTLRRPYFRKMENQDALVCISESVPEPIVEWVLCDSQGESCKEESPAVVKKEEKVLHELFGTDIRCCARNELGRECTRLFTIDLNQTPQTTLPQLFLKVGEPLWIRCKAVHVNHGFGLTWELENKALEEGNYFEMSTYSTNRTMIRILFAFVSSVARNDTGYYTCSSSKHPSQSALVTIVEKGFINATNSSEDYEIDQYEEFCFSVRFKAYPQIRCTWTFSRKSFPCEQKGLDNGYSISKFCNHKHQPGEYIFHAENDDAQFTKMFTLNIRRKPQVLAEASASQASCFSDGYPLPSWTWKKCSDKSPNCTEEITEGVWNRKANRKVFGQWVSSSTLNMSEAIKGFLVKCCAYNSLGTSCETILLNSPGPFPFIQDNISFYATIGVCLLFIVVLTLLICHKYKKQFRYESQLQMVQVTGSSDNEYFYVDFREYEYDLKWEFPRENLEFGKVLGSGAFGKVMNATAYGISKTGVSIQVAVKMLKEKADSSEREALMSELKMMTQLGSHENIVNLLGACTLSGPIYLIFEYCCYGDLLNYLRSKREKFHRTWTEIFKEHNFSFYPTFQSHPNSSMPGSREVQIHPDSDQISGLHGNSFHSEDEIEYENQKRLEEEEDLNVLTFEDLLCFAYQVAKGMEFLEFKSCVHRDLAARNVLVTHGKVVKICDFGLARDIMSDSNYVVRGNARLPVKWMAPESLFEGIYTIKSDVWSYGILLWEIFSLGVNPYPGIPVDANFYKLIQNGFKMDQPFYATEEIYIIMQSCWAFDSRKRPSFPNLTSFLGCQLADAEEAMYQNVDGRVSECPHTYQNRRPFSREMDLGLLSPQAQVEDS

[16] = molecular target: T1, Hepatocyte growth factor receptor; experiment: Inhibition of HGF-induced c-MET phosphorylation at Tyr1234/1235 in human MKN45 cells after 1 hr by Western blot analysis; format: cell-based
PC-3 [17] = experiment: Cytotoxicity against human PC3 cells assessed as decrease in cell viability at 25 uM after 72 hrs by Cell Titer-Glo assay relative to control; format: functional

Row | Compound | Activity (EBC-1 [1]) | Activity (MKN-45) | Activity (PC-3 [2]) | IC50 [3] | other results
1 | C[C@@H](Oc1cc(-c2cnn(C3CCNCC3)c2)cnc1N)c1c(Cl)ccc(F)c1Cl [CRIZOTINIB] | 0.013 µM | 0.022 µM | 2.244 µM | – | Activity (HFL1): 39.4%
2 | CC(=O)N1CCC(Nc2ccc(-c3n[nH]c4c3CN(S(=O)(=O)c3cccc5cccnc35)CC4)cc2)CC1 | – | – | – | > 50 µM | –
3 | CC(=O)N1CCC(Nc2ccc(-c3n[nH]c4c3CN(S(=O)(=O)c3cccs3)CC4)cc2)CC1 | – | >25 µM | >25 µM | – | Activity (EBC-1 [4]): 57.52%
4 | O=C(NCCO)c1ccc(-c2n[nH]c3c2CN(S(=O)(=O)c2c(Cl)cccc2Cl)CC3)cc1 | >25 µM | >25 µM | >25 µM | – | –
5 | CC(=O)N1CCC(Nc2ccc(-c3n[nH]c4c3CN(S(=O)(=O)c3c(Cl)cccc3Cl)CC4)cc2)CC1 | 11.478 µM | 12.02 µM | >25 µM | – | –
6 | CC(=O)N1CCC(Nc2ccc(-c3n[nH]c4c3CN(S(=O)(=O)c3ccc(C)cc3)CC4)cc2)CC1 | – | – | – | > 50 µM | –
7 | CN1CCN(C(=O)c2ccc(-c3n[nH]c4c3CN(S(=O)(=O)c3c(Cl)cccc3Cl)CC4)cc2)CC1 | 8.278 µM | 12.057 µM | – | – | –
8 | CC(=O)N1CCC(Nc2ccc(-c3n[nH]c4c3CN(S(=O)(=O)c3cccc5ccccc35)CC4)cc2)CC1 | – | – | – | > 50 µM | –
9 | CN1CCC(Nc2ccc(-c3n[nH]c4c3CN(S(=O)(=O)c3c(Cl)cccc3Cl)CC4)cc2)CC1 | 3.481 µM | 1.187 µM | – | 0.068 µM | inhibition [5]: 17.6%; inhibition [6]: -5.68%; inhibition [7]: 97.8%; inhibition [8]: 26.9%; inhibition [9]: 41.1%; inhibition [10]: 33.5%; inhibition [11]: 27.4%; inhibition [12]: 55.6%; inhibition [13]: 14.9%; inhibition [14]: 7.16%; IC50 [15]: 124 nM; inhibition [16]: Dose-dependent effect; Activity (PC-3 [17]): 60.89%; Activity (HFL1): 40.6%

Source: ChEMBL document CHEMBL4130362, “Structure-based design, synthesis, and evaluation of 4,5,6,7-tetrahydro-1H-pyrazolo[4,3-c]pyridine derivatives as novel c-Met inhibitors” (Eur J Med Chem, 2017)
